Source: patent US4292321A, “1,3,8-Triazaspirodecane-4-ones, pharmaceutical compositions thereof and method of use thereof” (Warner-Lambert Company, priority 1980, dated 1981)
Like-named read-outs stand apart in the source and are kept apart here.

Molecular target: T1, dopamine receptor (Bos taurus, UniProt P20288)
T1 construct: from tissue
Experiment: 3H-haloperidol receptor binding assay (HRBA)
Settings: for inhibition at 0.1 µM / inhibition at 0.01 µM: read-out: inhibition of 3H-haloperidol binding
From the text: The compounds of this invention are useful because of their valuable pharmacological properties. […] As with other known neuroleptics, the compounds of this invention readily displace ^3 H-haloperidol from dopamine receptor binding sights in the ^3 H-haloperidol receptor binding assay (HRBA). […] The HRBA screen is described by I. Creese, D. R. Burt and S. H. Snyder, Science 142: 480 (1976) and by B. Seeman, T. Lee, M. Chani-Wong and K. Wong, Nature 261: 717 […].

T1 sequence (P20288 whole entry): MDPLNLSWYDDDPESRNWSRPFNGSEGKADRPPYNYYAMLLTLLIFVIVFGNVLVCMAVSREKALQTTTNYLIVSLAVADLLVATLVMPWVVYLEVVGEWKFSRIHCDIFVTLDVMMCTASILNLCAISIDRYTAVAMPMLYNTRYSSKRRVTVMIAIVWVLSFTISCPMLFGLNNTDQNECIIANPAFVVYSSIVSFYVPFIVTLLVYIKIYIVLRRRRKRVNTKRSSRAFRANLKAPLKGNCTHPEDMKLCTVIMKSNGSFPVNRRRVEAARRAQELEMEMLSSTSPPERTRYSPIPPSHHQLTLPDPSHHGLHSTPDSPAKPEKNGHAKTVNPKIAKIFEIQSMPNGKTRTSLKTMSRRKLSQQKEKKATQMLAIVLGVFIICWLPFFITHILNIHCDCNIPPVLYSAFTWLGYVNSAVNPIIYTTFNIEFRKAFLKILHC

Structure (SMILES)	inhibition at 0.01 µM (10 n moles concentration)	inhibition at 0.1 µM (100 n moles concentration)	inhibition of 3H-haloperidol binding (10 n moles concentration)	inhibition at 0.1 µM	inhibition at 0.01 µM
Fc1cccc(C2=CCN(CCCN(c3ccccc3)c3ccccc3)CC2)c1.O=C(O)C(=O)O [Example 40, 4-(3-Fluorophenyl)-1,2,3,6-tetrahydro-N,N-diphenyl-1-pyridinepropanamine ethanedioate]			no inhibition	~23%	
Fc1ccc(NC2CCN(CCCN(c3ccccc3)c3ccccc3)CC2)cc1 [Example 42, 4-[(4-Fluorophenyl)amino]-N,N-diphenyl-1-piperidinepropanamine ethanedioate]				~90%	~26%
OC(c1ccccc1)C1CCN(CCCN(c2ccccc2)c2ccccc2)CC1 (stereo not drawn) [Example 43, 1-[3-(Diphenylamino)propyl]-alpha-phenyl-4-piperidine methanol.]		~18%	no inhibition		
O=C(c1ccc(Cl)cc1)C1CCN(CCCN(c2ccc(F)cc2)c2ccc(F)cc2)CC1 [Example 44, [1-[3-[Bis(4-fluorophenyl)amino]propyl]-4-piperidinyl]-(4-chlorophenyl)methanone ethanedioate]				~69%	~8%

Now from value to compound, other results behind:

inhibition at 0.01 µM (10 n moles concentration)	inhibition at 0.1 µM (100 n moles concentration)	Structure (SMILES)	inhibition of 3H-haloperidol binding (10 n moles concentration)	inhibition at 0.1 µM	inhibition at 0.01 µM
~25%	~84%	Cc1cccc(C2CCN(CCCN(c3ccccc3)c3ccccc3)CC2)c1 [Example 41, N,N-diphenyl-4-[3-methylphenyl]-1-piperidinepropanamine butenedioate]			
~10%	~26%	c1ccc(N(CCCN2CCC3(CC2)OCCO3)c2ccccc2)cc1 [Example 45, N,N-diphenyl-1,4-dioxo-8-azaspiro[4,5]decane-8-propanamine ethanedioate.]			
~3%	~12%	c1ccc(N(CCCNC2=NC3CCC2CC3)c2ccccc2)cc1 [Example 46, N'-2-azabicyclo[2,2,2]-oct-2-en-3-yl-N,N-diphenyl-1,3-propanediamine]			
